The structures appear in SMILES notation.

The values below come from US20210395242A1, “HETEROCYCLIC COMPOUNDS AS AHR MODULATORS” (JAGUAHR THERAPEUTICS PTE LTD, priority 2018, published 2021).

For one experiment, the target named is T1, AhR (Homo sapiens, UniProt P35869).
T1 construct: endogenous in cells; host or cells: U937 cells
T1 sequence (P35869 11-848): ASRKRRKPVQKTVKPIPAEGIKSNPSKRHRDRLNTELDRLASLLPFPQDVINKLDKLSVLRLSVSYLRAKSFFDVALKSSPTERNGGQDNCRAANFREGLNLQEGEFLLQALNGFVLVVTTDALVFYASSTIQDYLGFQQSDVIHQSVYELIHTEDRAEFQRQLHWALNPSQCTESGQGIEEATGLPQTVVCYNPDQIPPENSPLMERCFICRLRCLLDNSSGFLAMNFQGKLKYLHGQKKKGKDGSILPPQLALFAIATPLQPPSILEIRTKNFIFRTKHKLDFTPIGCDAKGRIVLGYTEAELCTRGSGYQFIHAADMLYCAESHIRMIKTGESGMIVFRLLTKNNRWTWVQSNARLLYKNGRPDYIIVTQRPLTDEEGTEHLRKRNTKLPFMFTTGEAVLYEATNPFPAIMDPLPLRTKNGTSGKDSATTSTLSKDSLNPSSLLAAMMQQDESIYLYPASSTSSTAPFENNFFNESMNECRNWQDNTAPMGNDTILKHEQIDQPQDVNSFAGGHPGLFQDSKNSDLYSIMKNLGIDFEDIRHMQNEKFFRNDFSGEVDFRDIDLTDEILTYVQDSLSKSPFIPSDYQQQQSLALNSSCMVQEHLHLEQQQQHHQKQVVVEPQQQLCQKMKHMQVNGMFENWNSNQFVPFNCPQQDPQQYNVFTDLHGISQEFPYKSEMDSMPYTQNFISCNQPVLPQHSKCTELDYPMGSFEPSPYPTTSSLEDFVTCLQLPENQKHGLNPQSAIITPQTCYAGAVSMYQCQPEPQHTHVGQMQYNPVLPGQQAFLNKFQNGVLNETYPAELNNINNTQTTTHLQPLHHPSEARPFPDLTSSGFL
In words: AhR antagonism in U937 cells (Promega P450-Glo assay). Format: cell-based. The settings on record: inhibition of 300 μM KYNA response, 24 hrs, CYP1A1 activity readout (Luciferin-CEE), arithmetic mean of pIC50. The procedure:
(§1) The compounds of the examples were tested in selected biological assays two or more times. Data are reported as the arithmetic mean of the pIC50 (−log10IC50) values, where IC50 is defined as the concentration of compound producing a 50% inhibition of the agonist (KYNA) response.
In Vitro Assay 1: AhR Antagonism in U937 Cells (Promega P450-Glo™ Assay)
AhR antagonism was assessed in U937 cells (myeloid lineage cell line derived from a human histiocytic lymphoma). Ligand binds the AhR in the cytoplasm, and the AhR-ligand complex translocates to the nucleus and forms a heterodimer with AhR nuclear translocator (Arnt). This complex binds the xenobiotic response element (XRE) in the 5′ upstream region of the CYP1A1 promoter, enhancing CYP1A1 expression. CYP1A1 activity is subsequently determined by assessing the conversion of Luciferin-CEE to luciferin, which in turn reacts with luciferase to produce light. The amount of light produced is directly proportional to cytochrome P450 activity. U937 cells in Ultraculture serum free media (Lonza) were plated at 100,000 cells per well in a round bottom 96 well tissue culture plate. Seven concentrations of test compound (final [DMSO]1%) were added and incubated for 10 minutes before the addition of 300 μM KYNA. The plates were then placed in an incubator at 37° C., >85% humidity, 5% CO2 for 24 hrs. After aspiration of the supernatant the CYP1A1 substrate Luciferin-CEE ([Final] 83 μM) was added and incubated for 3 hrs before the reaction was stopped by adding luciferin detection reagent and luminescence was read after 20 minutes.

The target in another experiment is T2, CYP1A1 (Homo sapiens, UniProt P04798).
T2 construct: purchased Cypex
T2 sequence (P04798 1-512): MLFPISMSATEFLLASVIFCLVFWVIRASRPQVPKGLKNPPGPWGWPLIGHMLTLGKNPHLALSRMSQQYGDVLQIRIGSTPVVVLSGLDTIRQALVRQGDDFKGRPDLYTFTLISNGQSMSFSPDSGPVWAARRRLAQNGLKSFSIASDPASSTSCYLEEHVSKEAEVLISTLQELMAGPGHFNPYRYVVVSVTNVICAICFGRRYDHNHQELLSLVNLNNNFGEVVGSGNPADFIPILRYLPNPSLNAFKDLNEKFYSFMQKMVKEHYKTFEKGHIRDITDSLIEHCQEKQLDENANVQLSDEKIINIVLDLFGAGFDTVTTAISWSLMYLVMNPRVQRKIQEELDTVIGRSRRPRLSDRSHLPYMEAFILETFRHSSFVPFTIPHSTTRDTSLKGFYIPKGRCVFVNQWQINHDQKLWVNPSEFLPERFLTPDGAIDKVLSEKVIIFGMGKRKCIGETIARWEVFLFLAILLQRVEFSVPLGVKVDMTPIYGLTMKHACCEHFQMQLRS
In words: CYP1A1 inhibition assay (Promega P450-Glo, Cypex CYP1A1 bactosomes). The note with it: Luciferin-CEE 30 μM, 0.2 mM NADPH, 37° C. 10 minutes, arithmetic mean of pIC50. Format: biochemical. Here is the method: as §1
In vitro assay 2: CYP1A1 inhibition assay The direct CYP1A1 inhibitory activity of test compounds was also assessed using the Promega P450-Glo™ assay system. Seven concentrations of test compound were added to a ½ area white 96 well plate. Cypex CYP1A1 bactosomes ([final] 0.5 pmol) and CYP1A1 substrate Luciferin-CEE ([final] 30 μM) were prepared in 0.1M potassium phosphate buffer and incubated with test compounds at 37° C. for 5 minutes. 0.2 mM NADPH was then added to the plates and incubated at 37° C., for 10 minutes. The reaction was stopped by adding luciferin detection reagent and luminescence was read after 20 minutes.

As for `Cc1cc(NC(=O)c2ccnn2C)ccc1-c1nc2c(C)cccc2o1` [Example 23, 1-methyl-N-(3-methyl-4-(4-methylbenzo[d]oxazol-2-yl)phenyl)-1H-pyrazole-5-carboxamide], the IC50 (in general, the concentration that gives 50% inhibition) at AhR is 17.4 nM; on CYP1A1 it was 1260 nM.
